# Assay results published in patent US10485794B2, “Treatment method by combined use of MDM2 inhibitor and BTK inhibitor” (DAIICHI SANKYO COMPANY, LIMITED, priority 2015, dated 2019).
# Assays:
# [1] = test system: ABC-type DLBCL cell line TMD-8 cells; test: In vivo effect on subcutaneously transplanted TMD-8 tumor in mice (Test Example 1); design: species or system NOD-SCID mouse; details: for TGI (%): 29 days after tumor inoculation
# Description: ABC-type DLBCL cell line TMD-8 cells were suspended to 1×10^8 cells/mL using phosphate-buffered saline. 0.1 mL of the prepared cell suspension was subcutaneously transplanted to each NOD-SCID mouse (female, 6 weeks old). […] The major axis (mm) and minor axis (mm) of tumor were measured over time using an electronic digital caliper. […] Also, the body weights were measured over time using an automatic balance for small animals, and body weight change % was calculated according to calculation formula (5) shown below to study the influence of drug administration on the body weights. In addition, the results of the last body weight measurement were used in dose calculation. […] A: Average tumor volume of the compound-administered group on the date of assessment (*) B: Average tumor volume of the untreated control group on the date of assessment (*) *: The tumor volume was calculated according to ½×[Major axis of tumor]×[Minor axis of tumor]×[Minor axis of tumor].
# [2] = Body weight change of TMD-8 tumor-bearing mice (Test Example 1); type: in vivo, NOD-SCID mouse
# Description: ABC-type DLBCL cell line TMD-8 cells were suspended to 1×10^8 cells/mL using phosphate-buffered saline. 0.1 mL of the prepared cell suspension was subcutaneously transplanted to each NOD-SCID mouse (female, 6 weeks old). […] For a combined use group, 25 mg/kg or 50 mg/kg Compound A and 100 mg/kg or 200 mg/kg ibrutinib were orally administered sequentially by forced administration. […] The major axis (mm) and minor axis (mm) of tumor were measured over time using an electronic digital caliper. […] Also, the body weights were measured over time using an automatic balance for small animals, and body weight change % was calculated according to calculation formula (5) shown below to study the influence of drug administration on the body weights. In addition, the results of the last body weight measurement were used in dose calculation. […] *: The tumor volume was calculated according to ½×[Major axis of tumor]×[Minor axis of tumor]×[Minor axis of tumor]. […] BWn: Body weight on day n BWs: Body weight on the start day of administration
# [3] = Compound A 25 mg/kg oral, day 18 after tumor inoculation (first administration)
# [4] = Compound A 25 mg/kg oral, day 20 after tumor inoculation
# [5] = Compound A 25 mg/kg oral, day 22 after tumor inoculation
# [6] = Compound A 25 mg/kg oral, day 25 after tumor inoculation
# [7] = Compound A 25 mg/kg oral, day 27 after tumor inoculation
# [8] = Compound A 25 mg/kg oral, day 29 after tumor inoculation
# [9] = Compound A 50 mg/kg oral, day 18 after tumor inoculation (first administration)
# [10] = Compound A 50 mg/kg oral, day 20 after tumor inoculation
# [11] = Compound A 50 mg/kg oral, day 22 after tumor inoculation
# [12] = Compound A 50 mg/kg oral, day 25 after tumor inoculation
# [13] = Compound A 50 mg/kg oral, day 27 after tumor inoculation
# [14] = Compound A 50 mg/kg oral, day 29 after tumor inoculation
# [15] = Ibrutinib 100 mg/kg oral, day 18 after tumor inoculation (first administration)
# [16] = Ibrutinib 100 mg/kg oral, day 20 after tumor inoculation
# [17] = Ibrutinib 100 mg/kg oral, day 22 after tumor inoculation
# [18] = Ibrutinib 100 mg/kg oral, day 25 after tumor inoculation
# [19] = Ibrutinib 100 mg/kg oral, day 27 after tumor inoculation
# [20] = Ibrutinib 100 mg/kg oral, day 29 after tumor inoculation
# [21] = Ibrutinib 200 mg/kg oral, day 18 after tumor inoculation (first administration)
# [22] = Ibrutinib 200 mg/kg oral, day 20 after tumor inoculation
# [23] = Ibrutinib 200 mg/kg oral, day 22 after tumor inoculation
# [24] = Ibrutinib 200 mg/kg oral, day 25 after tumor inoculation
# [25] = Ibrutinib 200 mg/kg oral, day 27 after tumor inoculation
# [26] = Ibrutinib 200 mg/kg oral, day 29 after tumor inoculation
smiles,measurement,setting,value
"CC1(C)CCC2(CC1)N[C@@H](C(=O)N[C@@H]1CC[C@@H](C(N)=O)OC1)[C@H](c1ccnc(Cl)c1F)[C@]21C(=O)Nc2cc(Cl)ccc21.Cc1ccc(S(=O)(=O)O)cc1 [Compound A, (3′R,4′S,5′R)—N-[(3R,6S)-6-carbamoyltetrahydro-2H-pyran-3-yl]-6″-chloro-4′-(2-chloro-3-fluoropyridin-4-yl)-4,4-dimethyl-2″-oxo-1″,2″-dihydrodispiro[cyclohexane-1,2′-pyrrolidine-3′,3″-indole]-5′-carboxamide p-toluenesulfonate]",TGI (%),[1]; Compound A 25 mg/kg oral,45%
same,"Estimated tumor volume, average",[1]; [3],117 mm^3
same,"Estimated tumor volume, average",[1]; [4],135 mm^3
same,"Estimated tumor volume, average",[1]; [5],156 mm^3
same,"Estimated tumor volume, average",[1]; [6],201 mm^3
same,"Estimated tumor volume, average",[1]; [7],212 mm^3
same,"Estimated tumor volume, average",[1]; [8],282 mm^3
same,TGI (%),[1]; Compound A 50 mg/kg oral,58%
same,"Estimated tumor volume, average",[1]; [9],115 mm^3
same,"Estimated tumor volume, average",[1]; [10],118 mm^3
same,"Estimated tumor volume, average",[1]; [11],108 mm^3
same,"Estimated tumor volume, average",[1]; [12],143 mm^3
same,"Estimated tumor volume, average",[1]; [13],162 mm^3
same,"Estimated tumor volume, average",[1]; [14],216 mm^3
same,"Body weight change (%), average",[2]; [3],0.0%
same,"Body weight change (%), average",[2]; [4],2.1%
same,"Body weight change (%), average",[2]; [5],1.8%
same,"Body weight change (%), average",[2]; [6],1.6%
same,"Body weight change (%), average",[2]; [7],1.3%
same,"Body weight change (%), average",[2]; [8],0.1%
same,"Body weight change (%), average",[2]; [9],0.0%
same,"Body weight change (%), average",[2]; [10],−0.8%
same,"Body weight change (%), average",[2]; [11],−1.7%
same,"Body weight change (%), average",[2]; [12],−2.7%
same,"Body weight change (%), average",[2]; [13],−1.0%
same,"Body weight change (%), average",[2]; [14],−1.7%
"C=CC(=O)N1CCC[C@@H](n2nc(-c3ccc(Oc4ccccc4)cc3)c3c(N)ncnc32)C1 [Ibrutinib, (R)-1-(3-(4-amino-3-(4-phenoxyphenyl)-1H-pyrazolo[3,4-d]pyrimidin-1-yl)piperidin-1-yl)prop-2-en-1-one]",TGI (%),[1]; Ibrutinib 100 mg/kg oral,58%
same,"Estimated tumor volume, average",[1]; [15],115 mm^3
same,"Estimated tumor volume, average",[1]; [16],112 mm^3
same,"Estimated tumor volume, average",[1]; [17],127 mm^3
same,"Estimated tumor volume, average",[1]; [18],157 mm^3
same,"Estimated tumor volume, average",[1]; [19],185 mm^3
same,"Estimated tumor volume, average",[1]; [20],213 mm^3
same,TGI (%),[1]; Ibrutinib 200 mg/kg oral,67%
same,"Estimated tumor volume, average",[1]; [21],119 mm^3
same,"Estimated tumor volume, average",[1]; [22],120 mm^3
same,"Estimated tumor volume, average",[1]; [23],115 mm^3
same,"Estimated tumor volume, average",[1]; [24],149 mm^3
same,"Estimated tumor volume, average",[1]; [25],153 mm^3
same,"Estimated tumor volume, average",[1]; [26],166 mm^3
same,"Body weight change (%), average",[2]; [15],0.0%
same,"Body weight change (%), average",[2]; [16],−0.4%
same,"Body weight change (%), average",[2]; [17],−1.1%
same,"Body weight change (%), average",[2]; [18],−0.2%
same,"Body weight change (%), average",[2]; [19],0.8%
same,"Body weight change (%), average",[2]; [20],−0.1%
same,"Body weight change (%), average",[2]; [21],0.0%
same,"Body weight change (%), average",[2]; [22],−1.5%
same,"Body weight change (%), average",[2]; [23],−1.2%
same,"Body weight change (%), average",[2]; [24],0.2%
same,"Body weight change (%), average",[2]; [25],−0.4%
same,"Body weight change (%), average",[2]; [26],−1.6%
